According to paper PMC5097887 (European journal of medicinal chemistry, 2016):

What was measured:
[1] = computed value; Table 1 footnote b; cited from earlier work
rat brain TSPO = rat brain TSPO (Rattus norvegicus, UniProt P16257); assay type: binding; conditions: for LipE: pKi minus clogD; for binding affinity for TSPO (in words): locked amide rotamers of ligand 22
[2] = assay type: physicochemical; conditions: n-octanol/sodium phosphate buffer, pH 7.4

| Structure (SMILES) | cLogD [1] | Ki (rat brain TSPO) | LipE (rat brain TSPO) | logD [2] | binding affinity for TSPO (in words) (rat brain TSPO) |
| --- | --- | --- | --- | --- | --- |
| CCC(C)N(C)C(=O)c1cc2ccccc2c(-c2ccccc2Cl)n1 (centres unmarked) [Ligand 1, PK11195] | 3.97 |  |  |  |  |
| CC(Oc1cc(-c2ccccn2)nc2ncccc12)C(=O)N(C)c1ccccc1 (centres unmarked) [Ligand 20, N-Methyl-N-phenyl-2-[2-(pyridin-2-yl)-1,8-naphthyridin-4-yloxy]propanamide] |  | 0.5 ± 0.1 nM | 6.5 ± 0.1 | 2.48 |  |
| CC(Oc1cc(-c2ncccn2)nc2ccccc12)C(=O)N(C)c1ccccc1 (centres unmarked) [Ligand 21, N-Methyl-N-phenyl-2-[2-(pyrimidin-2-yl)quinolin-4-yl]oxypropanamide] |  | 0.53 ± 0.08 nM | 6.6 ± 0.1 | 2.48 |  |
| CC(Oc1cc(-c2ccccn2)nc2ccccc12)C(=O)N(C)C(C)C (centres unmarked) [Ligand 22, N-Isopropyl-N-methyl-2-[2-(pyridin-2-yl)quinolin-4-yloxy]propanamide] |  | 0.76 ± 0.09 nM | 6.58 ± 0.05 |  |  |
| CC(Oc1cc(-c2ccccn2)nc2ccccc12)C(=O)N(C)c1ccc(F)cc1 (centres unmarked) [Ligand 23, N-(4-Fluorophenyl)-N-methyl-2-[2-(pyridin-2-yl)quinolin-4-yloxy]propanamide] |  | 0.09 ± 0.01 nM | 5.80 ± 0.06 |  |  |
| COc1cc(OC(C)C(=O)N(C)c2ccccc2)c2cccnc2n1 (centres unmarked) [Ligand 27, 2-(2-Methoxy-1,8-naphthyridin-4-yloxy)-N-methyl-N-phenylpropanamide] |  | 7.8 ± 0.6 nM | 6.09 ± 0.04 |  |  |
| CC(Oc1cc(-n2cccc2)nc2ccccc12)C(=O)N(C)c1ccccc1 (centres unmarked) [Ligand 29, 2-[2-(1H-Pyrrol-1-yl)quinolin-4-yloxy]-N-methyl-N-phenylpropanamide] |  | 0.22 ± 0.03 nM | 6.13 ± 0.07 |  |  |
| CN1C(=O)C(Oc2cc(-c3ccccn3)nc3ccccc23)CC1(C)C (centres unmarked) [Ligand 33, 1,5,5-Trimethyl-3-[2-(pyridin-2-yl)quinolin-4-yloxy]pyrrolidin-2-one] |  | > 1000 nM | <3.93 |  |  |
| CC(C)N1CCC(Oc2cc(-c3ccccn3)nc3ccccc23)C1=O (centres unmarked) [Ligand 34, 1-Isopropyl-3-[2-(pyridin-2-yl)quinolin-4-yloxy]pyrrolidin-2-one] |  | > 1000 nM | <3.36 |  | lacked any appreciable binding affinity |
| O=[N+]([O-])c1ccccc1NCc1ccccn1 [Ligand 35, 2-Nitro-N-(pyridin-2-ylmethyl)aniline] |  |  |  |  | lacked any appreciable binding affinity |
| CC(On1c(-c2ccccn2)nc2ccccc21)C(=O)N(C)C(C)C (centres unmarked) [Ligand 36, N-Isopropyl-N-methyl-2-(2-(pyridin-2-yl)-1H-benzo[d]imidazol-1-yloxy)propanamide] |  | > 1000 nM | <2.47 |  |  |
